According to publication PMC5118709, “Identification of Polo-like kinase 1 interaction inhibitors using a novel cell-based assay” (Scientific Reports, 2016):
Several values for one entry are separate records, joined by “and”; a condition that tells them apart may be missing. Identical values can stand only once.

How the values were obtained:
GST-PBD367-603 of Plk1 = GST-PBD367-603 of Plk1 (Homo sapiens, UniProt P53350); assay: fluorescence polarization assay PBD-phosphopeptide
HEK293T cells = assay: mitotic index assay (phospho-Histone H3) in HEK293T cells; settings: 10 μM
CRAF-BRAF = molecular target: T1, CRAF-BRAF (Homo sapiens, UniProt P04049+P15056); assay: control BRET CRAF-BRAF (transient); type: cell-based
T1 construct: expressed in transfected cells; host or cells: HEK293T, transient transfection with PEI
T1 sequence (P04049 whole entry): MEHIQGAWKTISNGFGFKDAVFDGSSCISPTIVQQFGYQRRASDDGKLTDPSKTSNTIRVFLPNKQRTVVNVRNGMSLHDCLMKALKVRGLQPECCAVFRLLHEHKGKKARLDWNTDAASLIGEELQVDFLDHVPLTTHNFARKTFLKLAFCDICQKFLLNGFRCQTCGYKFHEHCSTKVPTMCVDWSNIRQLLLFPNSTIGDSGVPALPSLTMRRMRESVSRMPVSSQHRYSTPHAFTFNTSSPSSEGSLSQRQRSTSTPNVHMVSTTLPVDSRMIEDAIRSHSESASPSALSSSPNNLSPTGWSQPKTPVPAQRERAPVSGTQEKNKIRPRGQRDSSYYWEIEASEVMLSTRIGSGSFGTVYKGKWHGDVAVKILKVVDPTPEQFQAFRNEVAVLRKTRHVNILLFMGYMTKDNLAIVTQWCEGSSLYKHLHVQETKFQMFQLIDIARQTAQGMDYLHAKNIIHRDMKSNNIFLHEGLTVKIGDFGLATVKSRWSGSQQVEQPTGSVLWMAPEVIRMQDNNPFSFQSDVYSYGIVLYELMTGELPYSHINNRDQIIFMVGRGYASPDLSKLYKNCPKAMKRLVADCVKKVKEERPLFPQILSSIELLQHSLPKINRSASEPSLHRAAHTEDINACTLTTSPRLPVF
T1 sequence (P15056 whole entry): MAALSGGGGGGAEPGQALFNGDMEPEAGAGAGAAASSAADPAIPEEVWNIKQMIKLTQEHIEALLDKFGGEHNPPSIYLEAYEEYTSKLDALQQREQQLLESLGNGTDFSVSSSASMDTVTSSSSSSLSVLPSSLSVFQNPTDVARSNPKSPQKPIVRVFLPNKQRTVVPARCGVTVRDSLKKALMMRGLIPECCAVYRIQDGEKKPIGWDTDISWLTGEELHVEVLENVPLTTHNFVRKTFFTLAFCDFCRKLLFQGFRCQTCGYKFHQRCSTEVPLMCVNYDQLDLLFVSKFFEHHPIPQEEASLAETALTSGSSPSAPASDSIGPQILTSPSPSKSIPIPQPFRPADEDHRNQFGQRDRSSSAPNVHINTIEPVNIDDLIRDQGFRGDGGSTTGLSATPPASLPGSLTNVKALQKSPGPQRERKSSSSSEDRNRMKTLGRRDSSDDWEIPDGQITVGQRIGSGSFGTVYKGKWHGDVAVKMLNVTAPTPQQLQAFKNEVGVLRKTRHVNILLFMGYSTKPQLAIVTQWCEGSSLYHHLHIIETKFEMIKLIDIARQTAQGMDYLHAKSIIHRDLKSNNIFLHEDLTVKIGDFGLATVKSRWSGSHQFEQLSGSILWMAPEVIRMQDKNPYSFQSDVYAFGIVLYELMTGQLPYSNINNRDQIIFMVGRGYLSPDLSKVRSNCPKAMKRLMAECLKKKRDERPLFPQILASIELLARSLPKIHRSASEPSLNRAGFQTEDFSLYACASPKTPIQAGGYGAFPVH
Experimental: (§1) We used our cell-based assay to screen a library of 112 983 compounds available in-house at IRIC’s High-Throughput Screening (HTS) platform (see Materials & Methods). Compounds were tested on cells in 384-well plates at concentrations between 10 μM and 25 μM, depending on their concentration in the original stocks solutions. BRET readings were taken 2 hours after treatment. Results obtained show a tight, close to normal distribution centered around zero inhibition relative to DMSO-treated controls (Fig. 1D). Compounds inducing at least 30% BRET inhibition were selected. From these, auto-fluorescent compounds and those that induced more than 90% reduction in RLucII luminescence were removed, leaving 800 primary hits, that we then re-tested using the same assay. In parallel, we tested these compounds in a control BRET assay for an unrelated pair of interacting proteins (BRAF-CRAF[46]) to exclude false-positive compounds that could reduce the BRET signal by interfering with light or by modifying the activity of GFP or Luc.
For the confirmation screen, the same procedure as for the primary screen was followed, except that HEK293T cells were also seeded at 6.25 millions of cells per simple CellStack on day 1 for transient transfections. These cells were transfected on day 3 with Luc-Map (5 μg) and Plk1-GFP (25 μg) pIRESHyg3 plasmids using polyethylenimine (PEI). To identify false-positives compounds, Luc-CRAF (4 μg) and GFP-BRAF (20 μg) plasmids were also transfected with PEI following the published procedure.

stability by LC-MS = type: physicochemical
Description: Based on these observations, we speculated that the sulfone undergoes a β-elimination of the benzoate subunit to generate a vinyl sulfone which is responsible for the biological activity of this class of compounds. Using LCMS, we evaluated the stability of Cpd 16 in the buffer used in the FP assay. […] The sulfone β-elimination is a base-catalysed process and the buffer used in the assay is basic enough to allow the reaction to occur. Under neutral or acidic conditions, the compound was very stable and no fragmentation was observed.
Cpd 161, which is 2-((6-methyl-4-(trifluoromethyl)pyridin-2-yl)sulfonyl)ethyl 3-chlorobenzoate (400 μM final concentration), was added to 500 μl of FP buffer (previously described).

Plk1 = molecular target: T2, Plk1 (Homo sapiens, UniProt P53350); assay: localization of Plk1 in mitotic cells; type: cell-based; settings: up to 100 μM, data not shown
T2 construct: localization of Plk1-GFP or endogenous Plk1 from mitotic centrosomes, kinetochores or the cytokinetic midbody; endogenous in cells
T2 sequence (P53350 whole entry): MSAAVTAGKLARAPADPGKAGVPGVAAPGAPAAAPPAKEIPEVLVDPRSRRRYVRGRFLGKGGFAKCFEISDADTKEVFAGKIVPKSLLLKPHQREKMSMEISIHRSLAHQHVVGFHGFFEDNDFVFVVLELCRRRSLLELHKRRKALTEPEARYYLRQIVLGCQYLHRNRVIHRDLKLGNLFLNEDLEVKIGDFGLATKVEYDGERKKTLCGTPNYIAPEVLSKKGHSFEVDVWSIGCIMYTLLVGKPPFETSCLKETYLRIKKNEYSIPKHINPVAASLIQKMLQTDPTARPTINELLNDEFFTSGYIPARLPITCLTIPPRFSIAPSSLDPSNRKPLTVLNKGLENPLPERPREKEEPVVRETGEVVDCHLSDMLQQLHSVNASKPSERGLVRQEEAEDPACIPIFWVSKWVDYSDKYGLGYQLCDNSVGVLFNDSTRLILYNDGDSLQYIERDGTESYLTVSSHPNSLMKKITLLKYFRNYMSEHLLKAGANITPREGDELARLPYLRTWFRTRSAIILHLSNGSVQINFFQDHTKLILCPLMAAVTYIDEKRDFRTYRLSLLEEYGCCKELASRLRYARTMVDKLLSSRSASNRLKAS

Plk1-Map interaction [1] = molecular target: T3, Plk1-Map interaction (Homo sapiens, UniProt P53350); assay: LUMIER co-immunoprecipitation assay Plk1-Map
T3 sequence (P53350 whole entry): as above
Experimental: After cell lysis, GFP-Plk1 was immunoprecipitated and co-purified Map-Luc was measured by luminescence following addition of the luciferase substrate, coelenterazine.
Half a million stably transfected Map205-RLucII/GFP10-Plk1 cells in Tyrode solution were seeded per well in a 96-well plate and allowed to settle for 30 min at 37 °C. […] Plates were then centrifuged at 4 °C at 3000 rpm for 5 minutes to pellet cells. Cells were then lysed with the IP buffer (20 mM Tris pH 7.5, 150 mM NaCl, 2 mM EGTA, 0.5% NP-40, 1 mM DTT, PMSF, aprotinin and leupeptin) and incubated on ice for 20 minutes. Plates were centrifuged again at 4 °C at 3400 rpm for 10 minutes, and the soluble fraction was transferred into a new 96-well plate. Note that 10 μl of this fraction was transferred in white 96-well plates from which the luminescence was read as a measure of the input amount of cell lysate for the co-IP. GFP-Plk1 was immunoprecipitated by adding 0.35 μl of anti-GFP antibody (Invitrogen). Plates were sealed and incubated on a rotator at 4 °C for 30 minutes. Then, 4 μl of pre-washed protein A magnetic beads (Invitrogen) were added to each well. Plates were sealed and incubated at 4 °C for 1h30. The extracts + beads were then transferred in a 96-well PCR plates and beads were washed 3 times with the IP buffer using a magnetic 96-well rack. The fourth wash was done in Tyrode solution, then beads were re-suspended with it and transferred in a white 96-well plate. […] Tyrode was also added to the plates containing the input fraction, then Coelenterazine h was added to the wells, and enhanced luminescence was read as described above.

Plk1-Map interaction [2] = molecular target: T3, Plk1-Map interaction; assay: BRET Plk1-Map, stable HEK293T Plk1-Luc/GFP-Map cell line; type: cell-based; design: cDNAs for the human full length Plk1; expressed in transfected cells
Description: To develop a cell-based assay for the identification of Plk1 interaction inhibitors, we used Bioluminescence Resonance Energy Transfer (BRET)[42][43]. The assay monitors the interaction in HEK293T cells between Plk1 and Map205, a protein that we previously identified as an interactor of Drosophila Polo (Plk1 ortholog) on its PBD[44]. Although no ortholog of Drosophila Map205 has been found in vertebrates, this protein robustly interacts with vertebrate Plk1. […] Importantly, crystallography with zebrafish Plk1 has recently shown that Map205 nevertheless docks in the canonical phosphopeptide binding site of the PBD, with the natural phospho-mimetic Glu314 residue (Fig. 1A)[45]. In our assay, human Plk1 and a fragment of Drosophila Map205 (Map205_254-416 = Map) are respectively fused to Renilla luciferase II (Luc) and GFP10 (GFP), giving rise to energy transfer when the proteins are in close proximity (Fig. 1B). […] All combinations of Plk1 and Map tagged with Luc and GFP were tested (Supplementary Fig. S1). The Plk1-Luc/GFP-Map combination was selected because it yielded the highest BRET dynamic window. We then generated clonal stable cell lines co-expressing these two fusion proteins. These cell lines behaved very similarly to each other in BRET, and we selected one line that gave a high and reproducible BRET signal, with a Z′ score of 0.78, indicative of a robust assay for the purpose of a chemical screen (Supplementary Fig. S1).
as §1
For BRET on transiently transfected cells, 48 hours after the transfection, medium was removed, cells were washed twice with PBS, and then Tyrode solution (140 mM NaCl, 2.7 mM KCl, 12 mM NaHCO3, 5.6 mM D-glucose, 0.49 mM MgCl2, 0.37 mM NaH2PO4, 25 mM HEPES, pH 7.4, where 1 mM CaCl2 was freshly added) was added to the cells. Total fluorescence was first measured using a FlexStation II microplate reader (Molecular Devices), where the GFP10 was excited at 400 nm and read at 510 nm. Then, cells were treated for 5 minutes with 2.5 μM coelenterazine 400a (Gold Technology) before reading BRET2 using the Mithras LB940 microplate reader (Berthold Technologies). BRET2 signal corresponds to the light emitted by the GFP10 acceptor constructs (515 nm ± 20 nm) divided by the light emitted by the RlucII donor constructs (400 nm ± 70 nm). Net BRET2 was calculated by subtracting the background BRET ratio of the RLucII plasmid alone from the BRET ratio obtained by the two BRET partners. The Net BRET2 was plotted according to the GFP10/RLucII ratio, which was obtained by dividing the total fluorescence by the RLucII emission.
For the high throughput chemical screen, cells were amplified and frozen as multiple 1 ml aliquots containing 25 millions of stable HEK293T Plk1-Luc/GFP-Map cells to ensure that cells at the same passage number are used during the screen. […] Five days later, cells were counted and re-suspended in Tyrode solution. […]

Chain of GST-PBD367-603 of Plk1 (P53350 367-603): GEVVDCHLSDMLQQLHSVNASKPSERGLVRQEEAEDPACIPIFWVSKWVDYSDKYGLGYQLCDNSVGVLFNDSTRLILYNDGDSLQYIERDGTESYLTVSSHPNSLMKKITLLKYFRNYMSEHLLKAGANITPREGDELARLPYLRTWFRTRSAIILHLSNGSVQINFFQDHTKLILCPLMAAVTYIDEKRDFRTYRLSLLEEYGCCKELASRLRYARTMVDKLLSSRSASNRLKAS

## Cc1cc(C(F)(F)F)cc(S(=O)(=O)CCOC(=O)c2cccc(Cl)c2)n1 [Cpd 16, 2-((6-methyl-4-(trifluoromethyl)pyridin-2-yl)sulfonyl)ethyl 3-chlorobenzoate]
GST-PBD367-603 of Plk1; FP - IC50 (μM), Table S3
  IC50: 18.4 ± 10.2 µM
GST-PBD367-603 of Plk1; IC50 in FP, GST-PBD367-603 38 nM, 1 h pre-incubation, FITC-phosphopeptide 10 nM, Fig. 4C
  IC50: ~16 µM and 16 µM
HEK293T cells
  effect on mitotic index, purchased compounds: effective
CRAF-BRAF; 10-25 μM
  Primary screen CRAF-BRAF (transient) % Inihibition: 52.83%
  Primary screen CRAF-BRAF (transient) % Quench RLuc: 88.39%
CRAF-BRAF; confirmation screen
  Confirmation CRAF-BRAF (transient) % Inihibition: 0.37%
  Confirmation CRAF-BRAF (transient) % Quench RLuc: 80.17%
Stability by LC-MS; approximate pH 8.0, a few minutes (approximately 10 minutes)
  stability in the FP buffer: fragmentation occurred
Stability by LC-MS; neutral or acidic conditions
  stability: very stable
Plk1
  effect on localization of Plk1 in mitotic cells: did not result in a significant decrease
Plk1-Map interaction [1]; 10-25 μM, 2 h
  Average-Beads (mean luminescence): 25,276
  Co-IP Values relative to top in plate column = 1: 0.022
  effect on the Plk1-Map interaction in co-IP: disrupts the interaction with similar or better efficiency than TQ or PPG
Plk1-Map interaction [1]; mean divided by maximum mean of the compounds
  Relative Luminescence Unit: 0.022
Plk1-Map interaction [1]; raw data, 10-25 μM, 2 h
  Luminescence on beads, duplicate wells: 21,904 and 28,648
Plk1-Map interaction [2]; 10-25 μM, 2 h
  Primary screen Plk1-Map (stable) % Inihibition: 67.34%
  Primary screen Plk1-Map (stable) % Quench RLuc: 86.24%
Plk1-Map interaction [2]; confirmation screen
  Confirmation Plk1-Map (stable) % Inihibition: 30.79%
  Confirmation Plk1-Map (stable) % Quench RLuc: 81.37%
